According to patent publication US7074742B2, “Pyridinyl amides and imides for use as fungicides” (E. I. du Pont de Nemours and Company, priority 2000, dated 2006):
Marks after values point to notes of the source that are not given here.

Columns and labels:
Assay type in all cases: in vivo
Plasmopara viticola [1] = experiment: TEST G: curative spray on inoculated grape seedlings, grape downy mildew, disease rating; conditions: for Test G disease control rating (grape downy mildew, curative): curative spray on inoculated grape seedlings; for curative utility: curative (post-infection) use, especially for grape downy mildew, statement in words
Plasmopara viticola [2] = experiment: TEST E: preventive spray on grape seedlings, grape downy mildew, disease rating
Puccinia recondita = experiment: TEST B: preventive spray on wheat seedlings, wheat leaf rust, disease rating; conditions: 100 = 100% disease control, 0 = no control, concentration not marked in table
[3] = tested on: Erysiphe graminis f. sp. tritici; experiment: TEST A: preventive spray on wheat seedlings, wheat powdery mildew, disease rating; conditions: 100 = 100% disease control, 0 = no control relative to controls, concentration not marked in table
Phytophthora infestans = conditions: preventive spray on tomato seedlings; 100 = 100% disease control, 0 = no control; concentration not marked in table
Pyricularia oryzae = conditions: preventive spray on rice seedlings; 100 = 100% disease control, 0 = no control; concentration not marked in table
[4] = 100 = 100% disease control, 0 = no control, concentration not marked in table
[5] = concentration not marked in table

Compound | Test G disease control rating (grape downy mildew, curative) (Plasmopara viticola [1]; 20 ppm) | Test E disease control rating (grape downy mildew) (Plasmopara viticola [2]; 100 ppm) | Test B disease control rating (wheat leaf rust) (Puccinia recondita) [%] | Test A disease control rating (wheat powdery mildew) [3] [%] | Test D disease control rating (potato and tomato late blight) (Phytophthora infestans) [%] | Test E disease control rating (grape downy mildew) (Plasmopara viticola [2]; [4]) [%] | Test C disease control rating (rice blast) (Pyricularia oryzae) [%] | curative utility (Plasmopara viticola [1]) | Test G disease control rating (grape downy mildew, curative) (Plasmopara viticola [1]; [5]) [%]
CC(NC(=O)c1c(Cl)ccnc1Cl)c1ncc(C(F)(F)F)cc1Cl (single isomer, unassigned) [Cmpd 38] | 0** % | 69* % |  |  |  |  |  |  | 
O=C(NCc1ncc(C(F)(F)F)cc1Cl)c1cnc(Cl)c(Cl)c1 [Cmpd 7] |  |  | 0 | 0 |  |  |  |  | 
Nc1ncccc1C(=O)NCc1ncc(C(F)(F)F)cc1Cl [Cmpd 9] |  |  | 28 | 0 | 7 | 0 | 0 |  | 
O=C(NCc1ncc(C(F)(F)F)cc1Cl)c1cncc(Br)c1 [Cmpd 10] |  |  | 9 | 0 | 16 | 0 | 74 |  | 
O=C(NCc1ncc(C(F)(F)F)cc1Cl)c1cccnc1O [Cmpd 11] |  |  | 9 | 0 | 7 | 8 | 0 |  | 
COc1ncccc1C(=O)NCc1ncc(C(F)(F)F)cc1Cl [Cmpd 12] |  |  | 19 | 0 | 7 | 24 | 0 |  | 
CCOc1ncccc1C(=O)NCc1ncc(C(F)(F)F)cc1Cl [Cmpd 13] |  |  | 9 | 0 | 3 | 23 | 0 |  | 
Cc1ccc(C(=O)NCc2ncc(C(F)(F)F)cc2Cl)c(Cl)n1 [Cmpd 14] |  |  | 19 | 0 | 100 | 98 | 90 |  | 
O=C(NCc1ncc(C(F)(F)F)cc1Cl)c1cccnc1Oc1ccccc1 [Cmpd 15] |  |  | 38 | 0 | 7 | 8 | 30 |  | 
O=C(NCc1ncc(C(F)(F)F)cc1Cl)c1cccnc1Sc1ccccc1 [Cmpd 16] |  |  | 9 | 0 | 34 | 8 | 100 |  | 
O=C(NCc1ncc(C(F)(F)F)cc1Cl)c1cncc(C#Cc2ccccc2)c1 [Cmpd 17] |  |  | 0 | 13 | 25 | 0 | 0 |  | 
O=C(NCc1ncc(C(F)(F)F)cc1Cl)c1ccc(C(F)(F)F)nc1Br [Cmpd 18] |  |  | 9 | 0 | 32 | 0 | 80 |  | 
Cc1ccc(C(=O)NCc2ncc(C(F)(F)F)cc2Cl)c(O)n1 [Cmpd 19] |  |  | 9 | 0 | 7 | 8 | 0 |  | 
Cc1nc(C(F)(F)F)ccc1C(=O)NCc1ncc(C(F)(F)F)cc1Cl [Cmpd 20] |  |  | 28 | 0 | 25 | 8 | 87 |  | 
Cc1nc(C(F)(F)C(F)(F)F)ccc1C(=O)NCc1ncc(C(F)(F)F)cc1Cl [Cmpd 21] |  |  | 68 | 69 | 16 | 8 | 88 |  | 
COc1nc(C(F)(F)F)ccc1C(=O)NCc1ncc(C(F)(F)F)cc1Cl [Cmpd 22] |  |  | 0 | 0 | 7 | 0 | 0 |  | 
COCc1nc(C(F)(F)F)ccc1C(=O)NCc1ncc(C(F)(F)F)cc1Cl [Cmpd 23] |  |  | 9 | 72 | 32 | 8 | 7 |  | 
O=C(NCc1ncc(C(F)(F)F)cc1Cl)c1ccc(C(F)(F)F)nc1-c1ccccc1 [Cmpd 24] |  |  | 0 | 0 | 25 | 8 | 7 |  | 
Cc1nc(Cl)ccc1C(=O)NCc1ncc(C(F)(F)F)cc1Cl [Cmpd 25] |  |  | 9 | 0 | 79 | 16 | 13 |  | 
O=C(NCc1ncc(C(F)(F)F)cc1Cl)c1ccc(C(F)(F)F)nc1 [Cmpd 26] |  |  | 32 | 0 | 25 | 0 | 0 |  | 
O=C(NCc1ncc(C(F)(F)F)cc1Cl)c1cccnc1Nc1cccc(C(F)(F)F)c1 [Cmpd 27] |  |  | 0 | 0 | 32 | 16 | 0 |  | 
Cc1ncccc1C(=O)NCc1ccc(Cl)nc1 [Cmpd 32] |  |  | 0 | 0 | 32 |  | 0 |  | 
Cc1ncccc1C(=O)NCc1ccc(Oc2cccc(C(F)(F)F)c2)nc1 [Cmpd 33] |  |  |  | 91 | 71 |  |  |  | 
COc1cc(C(=O)NCc2ncc(C(F)(F)F)cc2Cl)cc(Cl)n1 [Cmpd 34] |  |  | 44 | 0 | 31 |  |  |  | 
Cc1cnc(C(=O)NCc2ncc(C(F)(F)F)cc2Cl)c(Cl)c1 [Compound 2] |  |  |  | 0 | 100 |  |  | significant curative utility | 99
O=C(NCc1ncc(C(F)(F)F)cc1Cl)c1cccnc1Cl [Compound 5] |  |  | 19 |  |  | 98 |  | significant curative utility | 99
Cc1cc(Cl)c(C(=O)NCc2ncc(C(F)(F)F)cc2Cl)c(Cl)n1 [Compound 8, 2,4-Dichloro-N-[[3-chloro-5-(trifluoromethyl)-2-pyridinyl]methyl]-6-methyl-3-pyridinecarboxamide] |  |  | 8 | 0 | 100 | 100 |  | significant curative utility | 96
